Measured values from patent US20100298280A1, “Compounds for the Modulation of Huntingtin Aggregation, Methods and Means for Identifying Such Compounds” (priority 2007, published 2010).
Entries after “also recorded” stand apart in the source; their conditions may differ. Read-outs that look alike come from different tables or passages of the source.

Legend:
[1] = molecular target: T1, mutant huntingtin aggregates (HDex1Q68 fused to ECFP/EYFP) (Homo sapiens, UniProt P42858, INS38QQQQQQQQQQQQQQQQQQQQQQQQQQQQQQQQQQQQQQQQQQQQQQQ); assay: Cellular FRET aggregation assay in stable Tet-off CHO-AA8/Q68-Q68 cells; type: cell-based; conditions: 48 h, 2% DMSO
Procedure: To determine the potential of possibly inhibiting substances the inventors performed dose response assays at concentrations ranging from 1, to 100 μM.
Screening was performed in 96-well plates (greiner bio-one) containing 1×10^4 cells/well of the stably inducible tet off cell lines htt-mut (six-fold) and CHO-AA8 line (three fold) for background control. Simultaneously, each compound was checked for its potential autofluorescence.
Two stable inducible CHO Tet off cell lines were constructed expressing simultaneously wildtype (CHO-AA8/Q17-Q17) or mutant (CHO-AA8/Q68-Q68) huntingtin fragments fused to ECFP or EYFP (FIG. 1B) after withdrawal of doxicycline (dox). Basal and induced expression levels of huntingtin fusion proteins were examined by Western blot analysis at different time intervals (4, 24, 48, and 72 hours). […] For the screening approach stable inducible huntingtin expressing cell lines were seeded in 96-well plates and the fluorescence intensities were measured with a fluorescence plate reader.
The test compounds were mixed in a fresh doxicycline-free medium with 2% DMSO and added to the Tet off cell lines two to three hours after seeding and attachment of the cells.
(§1) The FRET-measurement was performed 48 h later.
Subsequently, a second screening round was performed at concentration range 1, 3, and 10 μM, respectively.

CHO-AA8/Q68-Q68 cells = assay: Propidium iodide exclusion assay (viability, cell number) following the FRET assay; conditions: for Viability (effect in words): propidium iodide exclusion
Procedure: CHO-AA8/Q68-Q68, CHO-AA8/Q17-Q17 and CHO-AA8 cells were seeded in 96 well plates. After attachment of the cells, the medium was exchanged for Ham's F 12 medium containing 10% doxicycline free FBS and 2% DMSO supplemented with compounds. After 48 h the fluorescence intensities of cells were measured using a fluorescence plate reader (Fluoroscan Ascent, Thermo Scietific) and filtersets for CFP (ex 444 nm, em 485 nm), YFP(ex 485 nm, em 538 nm) and FRET (ex 444 nm, em 538 nm). After correction of background fluorescence (subtraction of CHO-AA8 cell fluorescence intensities) the FRET signal was determined using the method: FA=(FRET-a*YFP)/CFP with a=0.11 (Zal u. Gascoigne 2004, Zal et al. 2002). In following, the viability of cells was measured using a propidium iodide exclusion assay (Sattler et al. 1997). PI was added to the cells at final concentration of 0.15 mg/ml. After 15 minutes the PI fluorescence intensity was measured (ex 530 nm, em 620 nm). The cells were then lysed with 0.5% Triton X-100 (TX100) and the PI fluorescence intensity was measured again. Viability of cells was calculated as viability=1−(PIbefore TX100/PIafter TX100).
as §1

[2] = test system: mutant huntingtin aggregates; assay: Filter retardation assay on lysates of treated cells (immunodetection); type: cell-based; conditions: increasing concentrations
Procedure: (C) Immunodetection of mutant huntingtin aggregates upon PGL-135 treatment of cells using a filter retardation assay.
The filter retardation assay was accomplished as described (Scherzinger et al., 1999). Cells were lysed (100 mM NaCl, 5 mM MgCl2, 0.5% NP-40, 1 mM EDTA, 50 mM Tris-HCl, protease inhibitors, 25 U/mL benzonase, pH 8.8), denatured 5 min at 95° C. with 2% SDS/50 mM DTT and cell lysates equal 2 μg protein were filtered through a 0.2 μm cellulose acetate membrane (Schleicher & Schuell) using a dot blot unit. The immunodetection was performed using the same antibody detection system as described above. Quantitative determination of the relative aggregate amount was evaluated with the Lumi Imager F1 System and Lumi Analyst 3.0 (Boehringer Mannheim, Germany).
The coherence between decreasing FRET values and less polyglutamine aggregates in PGL-135 treated cells was further validated by fluorescence microscopy imaging (data not shown) and a filter retardation assay (Heiser et al., 2000) (FIG. 2C).

[3] = molecular target: T2, GST-tagged mutant htt-exon-1 with 51 polyglutamines (GST-HDexQ51) (Homo sapiens, UniProt P42858, INS38QQQQQQQQQQQQQQQQQQQQQQQQQQQQQQ); assay: Cell free filter retardation assay; type: biochemical; conditions: tested 1-200 μM
T2 construct: GST-tagged mutant htt-exon-1 with 51 polyglutamines (GST-HDexQ51); GST (N, cleaved yes)
Procedure: To determine if the cellular environment is a prerequisite for the inhibitory effect of the isolated natural compounds or if the compounds directly interfere with the aggregation process, the inventors performed a cell free filter retardation assay (Scherzinger et al., 1997).
Briefly, GST-tagged mutant htt-exon-1 with 51 polyglutamines (GST-HDexQ51) is incubated with the compounds and factor Xa to remove the GST tag for proper aggregation (16 h, 23° C.). The aggregated peptides are denaturized by boiling in SDS buffer (10 min, 99° C.) and filtered though a cellulose acetate membrane. The insoluble aggregates are retained at the membrane and detected with an anti-huntingtin antibody.
The isolated natural compounds, PGL-135 and congo red were tested in a concentration range of 1-200 μM. […] (Data not shown). Concentration of less than 50 μM congo red produced an enhancement of the aggregation process.

[4] = test system: proteasome (chymotrypsin activity); assay: Proteasome activity, hydrolysis of Suc-LLVY-AMC in CHO-AA8/Tet-Off cells; type: cell-based; conditions: 24 h
Procedure: The concentration-dependent effect of khayanthone, 17-AAG, Gedunin, and Lactacystin on proteasome activity was tested using a non-recombinant CHO Tet-Off cell line. Cells were incubated with the given compounds for 24 h. Subsequently, proteasome activities were measured by a fluoroscan according to the degradation rate of a fluorogenic substrate (Suc-LLVY-AMC). In correlation to DMSO treated controls khayanthone led to an increase of proteasome activity about 40-50% in CHO-AA8/Tet-Off cells.
To confirm this we examined the chymotrypsin activity of the proteasome under the influence of khayanthone and compared data with known substances influencing the proteasomes' activity (gedunin, lactacystin, 17-AAG) (FIG. 4). Adminstration of the selected substances was performed for 24 h, and subsequently chymotrypsin activity of the UPS was determined by measuring the hydrolysis of a fluorogenic reporter (Suc-LLVY-AMC, Biomol).

HSP40 = assay: Western blot of heat shock protein expression in SH-SY5Y cells; type: cell-based; conditions: SH-SY5Y cell line, increasing concentration
Procedure: (§2) Utilizing Western-blot analysis concentration-dependent effects of khayanthone on protein expression of HSP40, HSP70, and HSP90 were detected. Immuno detection was performed using HSP specific monoclonal antibodies, respectively.
(§3) We examined effects of khayanthone on the expression of heat shock proteins, preferentially HSP40, HSP70 and HSP90, because of their impacts in neurodegenerative disease and cancer. Heat shock protein expression was determined in neuronal cells (SH-SY5Y cell line) by western blot analysis.

HSP70 = assay: as above; type: cell-based; conditions: SH-SY5Y cell line, increasing concentration
Procedure: as §2, §3

HSP90 = assay: as above; type: cell-based; conditions: SH-SY5Y cell line, increasing concentration
Procedure: as §2, §3

[5] = test system: flies expressing Htt-Exon-1Q93 in all neurons; assay: Climbing assay in a Drosophila model of HD; type: in vivo
Procedure: (A) Expression of the htt proteins in transgenic flies is driven by the bipartite expression system upstream activator sequence (UAS)-GAL4 (yeast transcriptional activator). Stocks w; P(w^+mC; w+; elav−GAL4/CyO) and w; P(w+mC=UAS-Q93httexon1) were crossed in order to obtain flies expressing mutant htt fragments in all neurons.
(B, C) Flies expressing Htt-Exon-1Q93 were fed with khayanthone (100 μM, 250 μM) or DMSO supplemented food. Effects of khayanthone on flies' motor ability were measured with the climbing assay. For this purpose flies were placed in a vial, then the height half of them were able to climb from the bottom within 60 sec was determined. In addition the time was measured which half of them needed to climb up 6 cm. […] Each curve represents a population of ˜40 flies. Error bars represent the SD of 5 repeats on each measuring point.
Flies were mated at 25° C. in vials containing standard food supplemented with different concentrations of the compound tested. Adults were transferred to vials containing fresh food supplemented with different concentrations of khayanthone (100 μM, 250 μM, and DMSO control) every 3 days after eclosion.
Effects of khayanthone on the flies' motor ability were measured with the climbing assay. For this purpose flies were placed in a vial, then the height, which half of them were able to climb from the bottom within 60 sec, was determined. In addition, the time was measured which half of them needed to climb up 6 cm. The assays were repeated five times on each population sample.

[6] = molecular target: T1, mutant huntingtin aggregates (HDex1Q68 fused to ECFP/EYFP); assay: Cellular FRET aggregation assay in stable Tet-off CHO-AA8/Q68-Q68 cells; type: cell-based
[7] = after day 18, food with 100 μM, 250 μM

T2 sequence (P42858 with tags, fused parts or gaps with the stated changes): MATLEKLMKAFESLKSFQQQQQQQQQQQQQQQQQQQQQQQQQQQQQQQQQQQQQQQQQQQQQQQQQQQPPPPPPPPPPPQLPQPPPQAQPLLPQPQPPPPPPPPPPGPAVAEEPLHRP
T1 sequence (P42858 1-88, stated change not applied): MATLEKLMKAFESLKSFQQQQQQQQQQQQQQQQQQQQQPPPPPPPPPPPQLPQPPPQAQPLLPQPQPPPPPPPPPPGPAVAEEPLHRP

## Cc1cc(O)c(C)c2sc(N)nc12 [PGL-135]
[1]
  FRET-signal (effect in words): decrease
CHO-AA8/Q68-Q68 cells; after 48 h
  Cell number (effect in words): no effect
  Viability (effect in words): not affected; also recorded: without affecting the cell viability; also recorded: no effect
[2]
  mutant huntingtin aggregates in filter retardation assay: significant decrease
[3]
  inhibition of aggregate formation (in words): Only congo red reliably inhibited the formation of aggregates

## CC(=O)O[C@H]1C[C@@H](OC(C)=O)C(C)(C)C2C[C@@H](OC(C)=O)[C@]3(C)C(CC[C@@]4(C)[C@H]([C@H]5CCOC5)C(=O)[C@H]5O[C@]543)[C@]21C (stereo partly shown) [S1, khayanthone]
[1]
  FRET-signal (effect in words): decreases
CHO-AA8/Q68-Q68 cells
  Cell number (effect in words): unaffected
[4]; 1 μM
  highest chymotrypsin activity: about 40%
[4]; 3, 10 μM
  chymotrypsin activities (decline with increasing concentrations): ~10%
[4]; CHO-AA8/Tet-Off cells, in correlation to DMSO treated controls
  increase of proteasome activity: 40-50%
HSP40
  HSP40 protein expression: decreased expression; also recorded: slight decrease
HSP70
  HSP70 protein expression: decreased expression; also recorded: slight decrease
HSP90
  HSP90 protein expression: decreased expression; also recorded: slight decrease
[5]; [7]
  climbing distance in 60 sec (height half of the flies climb): ~50 % of the initial distance
  time half of the flies need for a 6 cm distance: 2.3 times of the initial time
[5]; until day 18
  difference in climbing between treated and untreated flies: no detectable difference
[5]; with increasing age, food with 100 μM, 250 μM
  motor ability / mobility compared to DMSO treated flies (in words): improves significantly motor deficits; also recorded: maintain an improved mobility
[6]
  Number of mutant huntingtin aggregates (fluorescence microscopy images): decrease with increasing compound concentration

## C=C1[C@@H]2CC[C@@]3(C)[C@H](c4ccoc4)OC(=O)C[C@]13O[C@H]1CC(=O)C(C)(C)[C@H](CC(=O)OC)[C@]12C [S2, angolensic acid methylester]
[6]; half-maximal inhibition of FRET signal, dose response 0.7-50 μM
  EC50: 3 µM

## Nc1c(/N=N/c2ccc(-c3ccc(/N=N/c4cc(S(=O)(=O)O)c5ccccc5c4N)cc3)cc2)cc(S(=O)(=O)O)c2ccccc12 [congo red]
[1]
  FRET-signal ↓ (concentration from which aggregation is reduced): ↓ ≧30 μM
[1]; listed as Congo red
  FRET-signal ↓ (concentration from which aggregation is reduced): > 30 µM
CHO-AA8/Q68-Q68 cells; after 48 h
  Cell number ↓ (concentration): ↓ ≧125 μM
  Viability (effect in words): no effect
[3]; 16 h, 23° C.
  enhancement of the aggregation process (concentration): less than 50 μM
  inhibited the formation of aggregates (concentration): > 50 µM
